Laboratory results from US10676744B2, “Modulation of adipose tissue macrophage phenotype by use of MicroRNA-30” (University of South Carolina, priority 2017, dated 2020).

Columns and labels:
Format in all cases: cell-based, mice
[1] = system: CD11c; assay: In vitro LNA transfection assay in BMDM: CD11c surface expression by flow cytometry; details: DAPT (5 uM) added to culture media of transfected BMDM
Procedure: (§1) FIG. 3A schematically illustrates an in vitro experimental timeline during which differentiated bone marrow-derived microphages (BMDM) were incubated in conditioned medium from 3T3-L1 adipocytes (CM-3T3-L1A) prior to transfection with microRNA inhibitor locked nucleic acids (LNA) and subsequent culture. Cells and supernatants were harvested at 48 h.
FIG. 3F presents flow cytometry histograms of CD11c expression in the transfected BMDM. For FIG. 3B-FIG. 3F, values are presented as mean±SEM and are from a single experiment representative of 2-3 independent experiments.
FIG. 3G presents the percentage increase in CD11c+ macrophages during the in vitro experiments.
Freshly isolated SVF cells or cultured BMDM were washed in FACS buffer then incubated on ice with FcR-Blocker for 10 m followed by appropriate fluorochrome-conjugated antibodies or isotype controls (BioLegend, anti-CD11b-AlexaFluor488 clone: M1/70, anti-F4/80-PE clone: BM8, anti-DLL4-APC clone: HMD4-1, anti-CD45-PECy7 clone: 30-F11, anti-CD11c-APC clone: N418) for 50 m. Stained cells were washed 3× in FACS buffer then analyzed on a Beckman Coulter FC500 or BD FACSCelesta flow cytometer. Plots were analyzed with Beckman Coulter CXP Software or FlowJo v10.
Bone marrow derived macrophages (BMDM) were differentiated from bone marrow cells (BMC) by flushing the tibia and femur of 6-8 week old female C57Bl/6J mice with PBS. […]

[2] = system: miRs-30a-5p, -30c-5p, and -30e-5p; assay: In vitro LNA transfection assay in conditioned BMDM: miR-30 expression; details: BMDM in CM-3T3-L1A, LNA-transfected; relative to Mock and control LNA (Ctr LNA)
Procedure: ATMs were lysed in Qiazol and total RNA was purified using Qiagen miRNeasy Microkit. RNA concentration and purity were measured using a NanoDrop 2000 spectrophotometer. 400 ng total RNA was reverse transcribed to cDNA using Qiagen miScript II RT kit with HiFlex buffer. To validate miRNA expression by qRT-PCR, miScript SYBR Green PCR kit and miScript miRNA Primer Assays were used (Qiagen).
(§2) Bone marrow derived macrophages (BMDM) were differentiated from bone marrow cells (BMC) by flushing the tibia and femur of 6-8 week old female C57Bl/6J mice with PBS. BMCs were filtered through a 70 μm nylon mesh, RBC-lysed, and washed, then cultured in complete DMEM/F12 supplemented with 10% FBS, 1% penicillin/streptomycin, 2 mM L-glutamine, and 1 U/mL M-CSF (BioLegend, 576406) for 7-10 days. 3T3-L1 adipocyte-conditioned media (CM-3T3-L1A) was generated by differentiating 3T3-L1 preadipocytes into adipocytes according to the Zen-Bio 3T3-L1 Adipocyte Care Manual (ZBM0009.03). Preadipocyte medium, differentiation medium, and adipocyte maintenance medium were also used (Zen-Bio, PM-1-L1, DM-2-L1, AM-1-L1). Conditioned medium was collected between days 7 and 14 post-differentiation, 0.22 μm filtered, aliquoted, and stored at −80° C. until use. For transfection assays, mature BMDM were plated in poly-D-lysine-coated 6-well plates at a density of 5×10^5 cells in 2 ml CM-3T3-L1A containing 10% FBS without antibiotics. BMDM were incubated 24 h (37° C., 5% CO2, 95% humidity) before transfection. Transfection complexes were prepared by diluting Lipofectamine3000 and LNA in Opti-MEM to final concentrations of 2% (v/v) and 0.32 μM respectively. Mixtures were incubated 15-20 m at RT to allow complexes to form. Meanwhile, conditioned BMDM were washed 3× in pre-warmed Dulbecco's PBS (DPBS), then media replaced with 2 mL Opti-MEM. 5004 transfection complexes were added drop-wise to each well. […]

[3] = system: DLL4; assay: In vitro LNA transfection assay in BMDM: DLL4 in culture supernatants by ELISA; details: LNA-transfected BMDM; compared to Mock and Ctr LNA; harvested at 48 h
Procedure: as §1
FIG. 3B presents the amounts of DLL4 detected in culture supernatants by ELISA during the in vitro experiments.
as §2, with “form.” for “form. Meanwhile, conditioned BMDM were washed 3× in pre-warmed Dulbecco's PBS (DPBS), then media replaced with 2 mL Opti-MEM. 5004 transfection complexes were added drop-wise to each well.”
Culture supernatants were aspirated and centrifuged 5000 RPM, 5 m, 4° C. to rid of debris then aliquoted and stored −80° C. before assaying. […] Assays were performed according to manufacturer protocols and plates were read at 450 nm. Concentrations were calculated using standard curves.

[4] = system: Notch1 intracellular domain (N1ICD); assay: In vitro LNA transfection assay in BMDM: Western blot of cleaved/activated Notch1; details: LNA-transfected BMDM, compared to Mock and Ctr LNA
Procedure: as §1
FIG. 3C presents Western blot results of cleaved/activated Notch1 (N1ICD) during the in vitro experiments. Fold induction relative to Mock is represented below each lane.
as §2

Row | Compound | induction of CD11c in miR-30 inhibitor-transfected cells [1] | expression of miRs-30a-5p, -30c-5p, and -30e-5p [2] | DLL4 expression (culture supernatants, ELISA) [3] | activated Notch1 intracellular domain (N1ICD) expression [4]
1 | C[C@H](NC(=O)Cc1cc(F)cc(F)c1)C(=O)N[C@H](C(=O)OC(C)(C)C)c1ccccc1 [DAPT] | reduced induction |  |  | 
2 | Anti-30a: miRNA inhibitor locked nucleic acid (MirCURY LNA, Exiqon) targeting miR-30a-5p; SEQ ID NO: 2 TTCCAGTCGAGGATGTTTAC (LNA-modified miRCURY inhibitor, LNA positions and linkages not given here) |  | decreased expression | increased | increased
3 | Anti-30c: miRNA inhibitor locked nucleic acid (MirCURY LNA, Exiqon) targeting miR-30c-5p; SEQ ID NO: 3 CTGAGAGTGTAGGATGTT (LNA-modified miRCURY inhibitor, LNA positions and linkages not given here) |  | decreased expression | increased | increased
4 | Anti-30e: miRNA inhibitor locked nucleic acid (MirCURY LNA, Exiqon) targeting miR-30e-5p; SEQ ID NO: 4 TCCAGTCAAGGATGTTTAC (LNA-modified miRCURY inhibitor, LNA positions and linkages not given here) |  | decreased expression | increased | increased
